Activity calls are given as the source filed them. No cut-off for these calls is given here.
Experiments:
A549 [1] = test: Cytotoxicity against human A549 cells assessed as decrease in cell viability at 10 to 100 uM after 48 hrs by SRB assay; assay type: functional, cell-based; settings: for EC50: A549, 48 h
A549 [2] = test: Cytotoxicity against human A549 cells assessed as decrease in cell viability at 25 to 100 uM after 48 hrs by SRB assay; assay type: functional, cell-based
A549 [3] = test: Cytotoxicity against human A549 cells assessed as decrease in cell viability at 10 to 100 uM after 48 hrs by MTT assay; assay type: functional, cell-based
[4] = biological target: Signal transducer and activator of transcription 3 (Homo sapiens, UniProt P40763); test: Inhibition of STAT3 (unknown origin) assessed as reduction in STAT3-DNA binding
[5] = Growth inhibition of human U266 cells; assay type: functional, cell-based; settings: U-266

Chain of Signal transducer and activator of transcription 3 (P40763 whole entry): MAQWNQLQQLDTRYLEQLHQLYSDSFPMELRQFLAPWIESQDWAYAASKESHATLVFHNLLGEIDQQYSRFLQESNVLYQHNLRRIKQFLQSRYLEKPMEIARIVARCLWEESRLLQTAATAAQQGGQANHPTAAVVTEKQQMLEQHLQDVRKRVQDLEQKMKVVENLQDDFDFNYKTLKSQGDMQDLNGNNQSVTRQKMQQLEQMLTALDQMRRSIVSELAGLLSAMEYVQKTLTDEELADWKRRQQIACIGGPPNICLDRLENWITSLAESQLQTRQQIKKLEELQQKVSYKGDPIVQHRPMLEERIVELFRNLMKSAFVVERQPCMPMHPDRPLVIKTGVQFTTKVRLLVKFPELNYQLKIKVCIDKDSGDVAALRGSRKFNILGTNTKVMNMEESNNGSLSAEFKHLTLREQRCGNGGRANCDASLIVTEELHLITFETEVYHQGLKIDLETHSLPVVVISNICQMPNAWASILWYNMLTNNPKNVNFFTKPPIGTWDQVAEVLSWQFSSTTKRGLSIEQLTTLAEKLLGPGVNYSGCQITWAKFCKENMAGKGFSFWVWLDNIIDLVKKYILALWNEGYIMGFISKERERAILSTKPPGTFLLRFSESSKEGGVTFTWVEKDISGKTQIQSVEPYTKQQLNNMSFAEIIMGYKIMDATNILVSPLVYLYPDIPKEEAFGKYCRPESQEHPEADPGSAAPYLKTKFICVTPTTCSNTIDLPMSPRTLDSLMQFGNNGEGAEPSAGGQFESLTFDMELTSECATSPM

| IC50 [4] [µM] | Structure (SMILES) | Activity (A549 [1]) | EC50 (A549 [1]) [µM] | Activity (A549 [2]) | Activity (A549 [3]) | EC50 [5] [µM] |
| --- | --- | --- | --- | --- | --- | --- |
| 610 | C=C1C2=C(C(=O)N1OC)[C@H](O)[C@@](C)(O)[C@H](CCCCC)O2 | Dose-dependent effect | 46 | Active | Active | 6.7 |
|  | CO[C@@]12[C@H](COC(N)=O)C3=C(C(=O)C(C)=C(N)C3=O)N1C[C@@H]1N[C@@H]12 [MITOMYCIN] |  | 5.2 |  |  |  |
|  | CCCCC[C@@H]1OC(/C(C)=N/OC)=C(C(=O)O)[C@H](O)[C@@]1(C)O | inactive |  |  | inactive |  |
|  | C=C1C2=C(C(=O)N1OC)[C@H](OC(C)=O)[C@@](C)(O)[C@H](CCCCC)O2 | Dose-dependent effect | 49 | Active | Active |  |
|  | CCCCC[C@@H]1OC2=C(C(=O)NC2(COC)OC)[C@H](O)[C@@]1(C)O (some centres undefined) | inactive |  |  | inactive |  |
|  | C=C1C2=C(C(=O)N1OC)[C@H](OC(=O)CCl)[C@@](C)(O)[C@H](CCCCC)O2 | Dose-dependent effect | 33 | Active | Active |  |
